According to publication PMC11504387, “Synthesis and Biological Activity Assessment of 2-Styrylbenzothiazoles as Potential Multifunctional Therapeutic Agents” (Antioxidants, 2024):

Tests used:
[1] = UV spectrophotometric analysis of compounds in solution; assay type: physicochemical; conditions: for ʎmax: 10 µg/mL solution, DMSO diluted in MeOH; for Ɛ (molar extinction coefficient): at ʎmax, Lambert–Beer equation
Protocol: The synthesized compounds were solubilised in DMSO and diluted in MeOH, and the absorbance of the 10 µg/mL solution was measured between 290–400 nm with a UV-Vis spectrophotometer (SHIMADZU UV-2600 240 V, 1 cm quartz cell at 1 nm intervals). The absorbance at wavelength λ is related to the transmittance T(λ) via the Equation (1): A(λ) = −Log[T(λ)](1) where T(λ) is the fraction of incident irradiance transmitted by the sample. […]
The molar extinction coefficient was calculated with the absorbance recorded at the ʎmax applying the Lambert–Beer equation.

primary human monocytes = test: Lipid mediator (LM) formation in primary human monocytes; assay type: cell-based; conditions: 10 µM; A23187 2.5 µM, 30 min
Description: Monocytes and polymorphonuclear leukocytes (PMNL) were freshly isolated from human blood. Human blood and leukocyte concentrates were provided by the Institute for Transfusion Medicine of the University Hospital Jena (Thuringia, Germany). The protocols for experiments with human blood and blood cells were approved by the ethical commission of the Friedrich Schiller University of Jena. Following blood density centrifugation and separation of cell populations, peripheral blood mononuclear cells (PBMC) were left to adhere for 1 h to cell culture flasks (monocyte-enriched PBMC). Non-adherent cells were washed off from the adherent monocytes, before pre-incubating monocytes (5 × 10^6 cells/mL) with the test compounds for 10 min at 37 °C. LM formation was elicited with A23187 (2.5 µM) and CaCl2 (1 mM) over 30 min. The reaction was stopped with 1 mL of ice-cold methanol containing 10 µL of deuterium-labelled internal LM standards (200 nM d8-5S-HETE, d4-LTB4, d5-LXA4, d5-RvD2, d4-PGE2 and 10 µM d8-AA). LMs were extracted using Sep-Pak C18 35 cc Vac Cartridges (Waters, Milford, MA, USA) and analysed by UPLC-MS/MS as described by Pein et al..
The ability to modulate LM formation was screened in primary human monocytes expressing the enzymes required for PGE2, LTB4, and 12-HETE production (Figure 2A). Cells were pre-treated with the test compounds BZTst1–6 (10 µM) or the reference COX inhibitor diclofenac (1 µM) for 10 min prior to stimulation with the calcium ionophore A23187 (2.5 µM) for 30 min.

[2] = In vitro filtering parameters of O/W sunscreen formulation on PMMA plates; conditions: 3% in O/W sunscreen formulation
Protocol: Synthesized compounds were incorporated at 3% concentration in a suitable oil-in-water (O/W) emulsion for cosmetic use as sunscreen.
INCI: Aqua, Glycerin, Xanthan Gum, Phenoxyethanol (and) Ethylhexylglycerin, Tribehenin PEG-20 Esters, Cetearyl Alcohol, Dicaprylyl Carbonate, PPG 26 Buteth-26 (and) PEG 40 Hydrogenated Castor Oil, C12-15 Alkyl Benzoate, Sodium hydroxide (sol. 10%).
A protocol previously reported by us was adopted. Briefly, 32.5 mg of each compound formulation was spread on the rough surface of 5 × 5 cm^2 PMMA plates in the form of small drops of approximately equal mass, in triplicate. The plates were placed in the dark for 15–30 min to allow the formation of a sun-stabilised standard layer and then inserted into the instrument and measured at five different points on each plate (UV transmittance range 290–400 nm). The blank was a plate coated with 32.5 mg glycerine, chosen for its non-fluorescence and UV transparency. In addition, in vitro SPF, UVAPF and ʎc values were calculated according to Equations (2)–(4) above. To evaluate the booster effect of selected synthesized compounds, they were incorporated at 3% concentration in an oil-in-water (O/W) sunscreen formulation with fixed SPF and UVAPf values (30 and 10, respectively).
Aiming to create compounds with diverse biological activities, the synthesized 2-styrylbenzothiazoles were examined for potential applications in sunscreens. Each candidate was incorporated into a standard cosmetic formulation at a concentration of 3% and subjected to photoprotective efficacy testing using the Diffey–Robson method. The formulation comprised an oil-in-water (O/W) emulsion suitable for sunscreen use, with each benzothiazole derivative being heat-solubilized in the oil phase and then dispersed into the emulsion using a turbo emulsifier. The mixture was then cooled, and the emulsion was spread onto polymethylmethacrylate (PMMA) plates before recording the transmittance spectra. The SPF value, UVA protection factor value (UVAPF), the […], and the critical wavelength (λc) were determined from the transmittance spectra using SPF calculator software and are presented in Table 3. These parameters are essential for evaluating the efficacy of potential sunscreen products.

Row | SMILES | ʎmax [1] [nm] | Ɛ (molar extinction coefficient) [1] | 12-HETE formation (primary human monocytes) | SPF [2] | UVA/UVB [2] | UVAPF [2] | ʎc (critical wavelength) [2] [nm] | melting point [°C]
1 | C(=C\c1nc2ccccc2s1)/c1ccccc1 [BZTst1, (E)-2-styrylbenzo[d]thiazole] | 335.0 | 34,075.83 dm^3 mol^−1 cm^−1 | weak but significant inhibition | 13.88 | 0.96 | 7.08 | 364 | –
2 | Oc1ccc(/C=C/c2nc3ccccc3s2)cc1 [BZTst2, (E)-4-(2-(benzo[d]thiazol-2-yl)vinyl)phenol] | 354.4 | 30,835.44 dm^3 mol^−1 cm^−1 | – | 2.59 | 1.46 | 5.69 | 384 | –
3 | COc1ccc(/C=C/c2nc3ccccc3s2)cc1 [BZTst3, (E)-2-(4-methoxystyryl)benzo[d]thiazole] | 351.0 | 35,125.63 dm^3 mol^−1 cm^−1 | – | 2.26 | 1.59 | 3.07 | 378 | 144 to 148
4 | Oc1ccc(/C=C/c2nc3ccccc3s2)cc1O [BZTst4, (E)-4-(2-(benzo[d]thiazol-2-yl)vinyl)benzene-1,2-diol] | 363.3 | 22,070.71 dm^3 mol^−1 cm^−1 | highly significant inhibition | 3.87 | 1.47 | 7.65 | 389 | –
5 | COc1ccc(/C=C/c2nc3ccccc3s2)cc1O [BZTst5, (E)-5-(2-(benzo[d]thiazol-2-yl)vinyl)-2-methoxyphenol] | 358.0 | 22,513.37 dm^3 mol^−1 cm^−1 | – | 2.91 | 0.93 | 2.70 | 384 | –
6 | COc1cc(/C=C/c2nc3ccccc3s2)ccc1O [BZTst6, (E)-4-(2-(benzo[d]thiazol-2-yl)vinyl)-2-methoxyphenol] | 361.2 | 16,871.66 dm^3 mol^−1 cm^−1 | – | 3.43 | 1.96 | 14.13 | 388 | –
